Test system: embryonic stem cells
Assay: Embryonic stem cells treated with NAD+ synthesis inhibitor FK866 and NAD precursors (NAD level, AP activity, apoptosis)
Assay type: cell-based, human
Procedure: Embryonic stem cells were treated with nicotinamide and related compounds, and after 6 days, protein was isolated from the cells. NAD cycling enzyme was added to and reacted with 20 μg of the protein per each group at room temperature for 5 minutes, and then a NADH developer was added and reacted therewith for 2-3 hours. The absorbance at 450 nm was measured using a microplate reader, and the amount of the […] was quantified.
AP staining was performed using a commercial AP kit (Sigma) according to the manufacturer's instruction. Images of AP-positive cells were recorded with HP Scanjet G4010. Also, bight field images were obtained with an Olympus microscope (IX51, Olympus, Japan).
In order to examine the effect of nicotinamide on a reduction in the apoptosis of human pluripotent stem cells, dual apoptosis assay (Biotium, Hayward, Calif.) was performed. Embryonic stem cells or cells reprogrammed were stained with NucView™488 Caspase-3 Substrate (green)/Annextin V (red) at room temperature for 30 minutes, followed by washing with PBS. At least 4 sections of each sample were imaged with an Olympus fluorescence microscope (IX51, Olympus), and the number of cells stained with green (Caspase-3) was counted to quantify the degree of apoptosis.

Row | Structure (SMILES) | apoptosis (treated with FK866) | concentration of NAD in the cells (treated with FK866) | state of the embryonic stem cells (treated with FK866) | recovery from damage caused by FK866 (co-treatment with FK866, also in mTeSR1-CDM)
1 | O=C(/C=C/c1cccnc1)NCCCCC1CCN(C(=O)c2ccccc2)CC1 [FK866] | induced | decreased | differentiated | 
2 | O=C(O)c1cccnc1 [nicotinic acid] |  |  |  | recovered
